Test results reported in patent US11801232B2, “Targeting of ARID1A-deficient cancers by inhibiting de novo pyrimidine synthesis pathway” (YALE UNIVERSITY, priority 2019, dated 2023).

How the values were obtained:
ES2 cells = assay: Cytotoxicity (SRB) assay with CalcuSyn combination analysis; format: cell-based; details: Homo sapiens, ES-2, Table 2; ES2 parental; VX970 alone; read-out: Dm
Procedure: Cytotoxicity assay. Cells were seeded in 96-well plates, with 2000 cells in 100 μL/well, and cultured for 24 h. The cells were treated with serial dilutions of drugs or without drug for an additional 72 h. Cell number was determined using a sulforhodamine B (SRB) assay, as previously described^23. Briefly, cells were fixed with 20% trichloroacetic acid (TCA), air-dried, and stained with 0.4% SRB dissolved in 1% acetic acid. After washing, protein-bound dye was solubilized with 10 mM unbuffered Tris-base solution (pH 10.5) and detected at 510 nm using a microplate reader. Percentage of cell-growth was calculated using the following formula: % cell growth=[(Absorbance sample)/(Absorbance untreated)]×100 […] Datasets from at least three independent experiments were combined, and each table cell contains the mean value±SD. SCR, ES2-shScrambled. N/A, not applicable. Statistical analysis was carried out by one-way ANOVA with Bonferroni's post-hoc test, and differences were considered significant at **P<0.01 and ***P<0.001 as compared to the ES2 parental group with the same drug treatment. […] CIwt value was calculated using the formula: […] Datasets from at least three independent experiments were combined, and each table cell contains the mean value±SD. Teri, teriflunomide. SCR, ES2-shScrambled. N/A, not applicable. Statistical analysis was carried out by one-way ANOVA with Bonferroni's post-hoc test, and differences were considered significant at ***P<0.001 as compared to the ES2 parental group with the same drug treatment.

ES2 shARID1A (a) cells = assay: as above; format: cell-based; details: Homo sapiens, Table 2, VX970 alone, read-out: Dm
Procedure: (§1) Short Hairpin RNA (shRNA)-Mediated Knockdown and Expression of ARID1A in ovarian and endometrial carcinoma cells. shRNA lentiviral supernatants were produced using standard protocols, as previously described^8. Vectors were transfected into HEK293FT cells using X-tremeGENE 9 DNA Transfection Reagent (from Roche). Retroviral supernatants isolated at 48 h were diluted 1:1 in culture medium and used to infect ARID1A-wildtype ES2 and KLE cell lines. Stably transfected subclones were expanded using puromycin (from Dot Scientific) drug selection. For expression of ARID1A in the ARID1A-mutant HEC-1-A cell line, pCIN4-HA-ARID1A was transfected using X-tremeGENE 9 DNA Transfection Reagent (from Roche), followed by selection with G418 (from Gibco). For expression of ARID1A in the ARID1A-mutant SKOV3 and OVISE cell lines, V5/His-tagged pLenti-puro-LacZ and pLenti-puro-ARID1A were transfected using lentivirus. Lentivirus was produced using HEK293FT cells with the second-generation packaging system pSPAX2 (Addgene plasmid) and pMD2.G (Addgene plasmid). Stably transfected subclones were expanded using puromycin and blasticidin (Gibco) drug selection.
(§2) Cytotoxicity assay. Cells were seeded in 96-well plates, with 2000 cells in 100 μL/well, and cultured for 24 h. The cells were treated with serial dilutions of drugs or without drug for an additional 72 h. Cell number was determined using a sulforhodamine B (SRB) assay, as previously described^23. Briefly, cells were fixed with 20% trichloroacetic acid (TCA), air-dried, and stained with 0.4% SRB dissolved in 1% acetic acid. After washing, protein-bound dye was solubilized with 10 mM unbuffered Tris-base solution (pH 10.5) and detected at 510 nm using a microplate reader. Percentage of cell-growth was calculated using the following formula: % cell growth=[(Absorbance sample)/(Absorbance untreated)]×100
(§3) Using CalcuSyn software (Biosoft), dose-effect curves were generated, and drug concentrations corresponding to a 50% decrease in cell number (IC50) were determined.
(§4) Drug concentrations corresponding to a median effect (Dm) are shown for each treatment; teriflunomide concentration is shown for combination (Combo) treatment at a 10:1 fixed molar ratio of two drugs, teriflunomide and AZD6738. […] Datasets from at least three independent experiments were combined, and each table cell contains the mean value±SD. SCR, ES2-shScrambled. N/A, not applicable. Statistical analysis was carried out by one-way ANOVA with Bonferroni's post-hoc test, and differences were considered significant at **P<0.01 and ***P<0.001 as compared to the ES2 parental group with the same drug treatment.
(§5) Drug concentrations (in μM for teriflunomide, in nM for […]) corresponding to median effect (Dm) are shown for each treatment; teriflunomide concentration is shown for combination (Combo) treatment at a 200:1 fixed molar ratio of the two drugs, teriflunomide and VX-970. […] CIwt<0.8, =0.8 to 1.2, and >1.2 indicates synergism, an additive effect, and antagonism, respectively. CIwt value was calculated using the formula: CIwt=(ED50+2ED75+3ED90)/6. Datasets from at least three independent experiments were combined, and each table cell contains the mean value±SD. Teri, teriflunomide. SCR, ES2-shScrambled. N/A, not applicable. Statistical analysis was carried out by one-way ANOVA with Bonferroni's post-hoc test, and differences were considered significant at ***P<0.001 as compared to the ES2 parental group with the same drug treatment.

ES2 shARID1A (b) cells = assay: as above; format: cell-based; details: Homo sapiens, Table 2, VX970 alone, read-out: Dm
Procedure: as §1, §2, §3, §4, §5

[1] = system: ES2-shScrambled (SCR) cells; assay: as above; format: cell-based; details: Homo sapiens, Table 2, VX970 alone, read-out: Dm
Procedure: as §1, §2, §3, §4, §5

[2] = system: ARID1A-knockout HCT116 cells; assay: Cell growth after 72 h drug treatment, ARID1A-knockout versus wild-type cells; format: cell-based, human; details: 72 h treatment; compared to ARID1A wild-type HCT116 control cells
Procedure: Cell Lines. Adherent cell lines were cultured in RPMI 1640 (from Gibco) supplemented with 10% fetal bovine serum (from Gibco) and 1% penicillin-streptomycin (from Gibco) at 37° C., 5% CO2. Low-passage-number cells were used, and all cell lines tested negative for mycoplasma using the MycoAlert Mycoplasma Detection Kit (from Lonza). The following ovarian and endometrial cancer cell lines were used: ES26, KLE5, SKOV3, OVISE (from JCRB Cell Bank), and HEC-1-A5 cells and their stably transfected subclones, as described below. Cell lines were authenticated using the GenePrint10 kit (form Promega) and matching to their original profiles (at ATCC). ARID1A protein expression status was confirmed by immunoblotting. HEK293FT cells were from Thermo Fisher Scientific. ARID1A-knockout HCT116 (homozygous truncating mutations, Q456*/Q456*) and ARID1A-wildtype HCT116 colorectal carcinoma cells were from Horizon Discovery.
(§6) Cytotoxicity assay. Cells were seeded in 96-well plates, with 2000 cells in 100 μL/well, and cultured for 24 h. […] Cell number was determined using a sulforhodamine B (SRB) assay, as previously described^23. […] After washing, protein-bound dye was solubilized with 10 mM unbuffered Tris-base solution (pH 10.5) and detected at 510 nm using a microplate reader. Percentage of cell-growth was calculated using the following formula: % cell growth=[(Absorbance sample)/(Absorbance untreated)]×100 […]

γ-H2AX = assay: Immunoblot and immunofluorescence of γ-H2AX in ES2 cells; format: cell-based, human; details: ARID1A-knockdown ES2 cells; teriflunomide 15 μM, AZD6738 1.5 μM, VX-970 0.075 μM; 24-72 h
Procedure: Immunoblot Analysis and Co-Immunoprecipitation Assay. For immunoblotting experiments, cells were lysed in BC200 lysis buffer [20 mM Tris-HCl (pH 7.5), 200 mM NaCl, 1 mM EDTA, 0.2% Nonidet P-40 (NP-40), freshly added complete protease inhibitor cocktail (from Roche), and PhosSTOP phosphatase inhibitor (from Roche)] or in boiling SDS lysis buffer [1% SDS and 10 mM Tris-CI (pH 7.5)], as previously described^21. Protein concentrations were quantified using a modified Lowry assay, and equal protein amounts were loaded onto a 10% SDS-PAGE gel and separated by gel electrophoresis, followed by transfer to a nitrocellulose membrane. The nitrocellulose membrane was stained with Ponceau S to confirm equal protein loading and then blocked in 2% BSA in Tris-buffered saline with 0.1% Tween-20 (tris buffered saline with tween, or TBST). Primary antibody incubation was done for 2 h at room temperature or, for phospho-specific antibodies, overnight at 4° C. An HRP-conjugated secondary antibody was used, followed by detection using enhanced chemiluminescence substrate (from Pierce). Autoradiograph images were scanned and saved as unmodified TIFF images, and densitometry analysis was done with ImageJ (from NIH) software.
Immunofluorescence. […] Images of cells were acquired using a BZ-X710 fluorescence microscope (from KEYENCE) and analyzed using ImageJ (from NIH).

[3] = system: ES2 ARID1A-knockdown cells (shARID1A); assay: Cell growth after 72 h drug treatment, ARID1A-knockdown versus control cells; format: cell-based, human; details: 72 h treatment; compared to untransfected or shCon ES2 cells
Procedure: as §1, with “Lentivirus was produced using HEK293FT cells with the second-generation packaging system pSPAX2 (Addgene plasmid) and pMD2.G (Addgene plasmid). Stably transfected subclones were expanded using puromycin and blasticidin (Gibco) drug selection.” left out
as §6, with “assay.” for “assay. Cells were seeded in 96-well plates, with 2000 cells in 100 μL/well, and cultured for 24 h.”

Structure (SMILES)	IC50 (ES2 cells) [nM]	IC50 (ES2 shARID1A (a) cells) [nM]	IC50 (ES2 shARID1A (b) cells) [nM]	IC50 [1] [nM]	Drug sensitivity of ARID1A-knockout HCT116 cells [2]	γ-H2AX protein levels (γ-H2AX)	Drug sensitivity of ARID1A-knockdown ES2 cells [3]
CNCc1ccc(-c2cc(-c3nc(-c4ccc(S(=O)(=O)C(C)C)cc4)cnc3N)on2)cc1 [VX-970]	165 ± 3.84	54.3 ± 1.31	63.3 ± 10.4	170 ± 9.24	more sensitive	increased	–
CCc1cncnc1N1CCN(Cc2nc3ccc(C(F)(F)F)cc3[nH]2)CC1 [PF-4708671]	–	–	–	–	–	–	significantly hypersensitive
